# Experimental data published in patent publication US20250134146A1, “FLAVANONE COMPOUNDS AND THEIR USE AS FLAVOR MODIFIERS” (Firmenich Incorporated, priority 2022, published 2025).
# How the values were obtained:
# [1] = target: T1, T1R sweet taste receptor (Homo sapiens, UniProt Q7RTX0+Q8TE23); test: in vitro cell-based assay, cells overexpressing the T1R sweet taste receptor; sweet dose-response curves; conditions: cells that overexpress the T1R sweet taste receptor; calculated from sweet dose-response curves
# T1 construct: expressed in transfected cells
# T1 sequence (Q8TE23 20-839): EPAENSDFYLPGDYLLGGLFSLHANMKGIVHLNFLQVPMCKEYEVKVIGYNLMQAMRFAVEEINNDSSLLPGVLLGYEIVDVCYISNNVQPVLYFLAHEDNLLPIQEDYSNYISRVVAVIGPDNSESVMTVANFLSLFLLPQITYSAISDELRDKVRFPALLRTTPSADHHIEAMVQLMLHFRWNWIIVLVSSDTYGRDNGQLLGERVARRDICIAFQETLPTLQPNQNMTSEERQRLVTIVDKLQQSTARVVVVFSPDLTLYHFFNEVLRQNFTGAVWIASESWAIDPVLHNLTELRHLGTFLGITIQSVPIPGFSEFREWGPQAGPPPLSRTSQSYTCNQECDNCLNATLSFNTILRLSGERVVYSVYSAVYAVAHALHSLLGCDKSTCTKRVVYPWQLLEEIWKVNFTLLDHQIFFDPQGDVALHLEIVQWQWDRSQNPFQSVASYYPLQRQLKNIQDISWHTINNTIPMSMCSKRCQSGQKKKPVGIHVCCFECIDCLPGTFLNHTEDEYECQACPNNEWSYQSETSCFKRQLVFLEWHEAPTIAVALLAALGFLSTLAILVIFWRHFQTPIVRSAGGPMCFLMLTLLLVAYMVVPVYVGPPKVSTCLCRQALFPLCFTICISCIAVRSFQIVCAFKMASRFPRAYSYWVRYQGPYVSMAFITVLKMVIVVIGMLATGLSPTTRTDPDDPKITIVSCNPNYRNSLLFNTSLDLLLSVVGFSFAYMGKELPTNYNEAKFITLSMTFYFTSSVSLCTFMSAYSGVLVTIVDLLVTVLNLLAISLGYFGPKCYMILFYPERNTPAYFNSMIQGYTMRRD
# T1 sequence (Q7RTX0 21-852): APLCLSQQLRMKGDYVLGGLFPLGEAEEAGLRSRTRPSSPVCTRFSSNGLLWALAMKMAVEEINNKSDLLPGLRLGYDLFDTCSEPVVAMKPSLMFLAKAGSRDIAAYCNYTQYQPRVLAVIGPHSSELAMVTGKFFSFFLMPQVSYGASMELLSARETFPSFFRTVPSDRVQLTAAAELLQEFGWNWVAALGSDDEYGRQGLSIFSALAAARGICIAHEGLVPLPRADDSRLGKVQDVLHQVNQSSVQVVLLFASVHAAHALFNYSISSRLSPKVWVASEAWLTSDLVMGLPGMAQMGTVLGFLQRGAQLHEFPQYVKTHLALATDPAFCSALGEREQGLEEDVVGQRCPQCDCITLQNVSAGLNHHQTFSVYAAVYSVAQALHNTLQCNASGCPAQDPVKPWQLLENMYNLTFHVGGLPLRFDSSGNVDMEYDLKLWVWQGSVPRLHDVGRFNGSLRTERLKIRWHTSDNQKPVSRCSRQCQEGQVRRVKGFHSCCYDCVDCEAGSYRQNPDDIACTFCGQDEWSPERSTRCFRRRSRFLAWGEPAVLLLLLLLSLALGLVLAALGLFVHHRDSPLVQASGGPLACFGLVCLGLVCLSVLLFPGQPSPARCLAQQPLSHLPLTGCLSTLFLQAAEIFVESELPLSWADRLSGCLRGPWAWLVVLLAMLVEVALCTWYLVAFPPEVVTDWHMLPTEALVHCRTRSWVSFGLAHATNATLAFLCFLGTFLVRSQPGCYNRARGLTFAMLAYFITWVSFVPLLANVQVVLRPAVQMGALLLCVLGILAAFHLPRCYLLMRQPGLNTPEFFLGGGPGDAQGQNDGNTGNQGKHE
# Procedure: Each of Compounds 101-107, 113, and 117-129 was either synthesized or separated from the corresponding synthetic racemate. Thereafter, the compounds were tested in an in vitro cell-based assay having cells that overexpress the T1R sweet taste receptor. The sweet dose-response curves were recorded and the EC50 was calculated. Table 4 sets forth the calculated EC50 values for the compounds tested.
# [2] = system: Human Panelists; test: sensory evaluation of sweetness intensity relative to 1.5% sucrose solution (Threshold Concentration); type: in vivo; conditions: highest concentration judged less sweet than 1.5% sucrose solution, trained sensory panel of at least 8 panelists
# Description: (§1) Test samples containing selected experimental compounds were sensory evaluated for sweetness intensity relative to 1.5% sucrose solution by a trained sensory panel of at least 8 panelists. The highest concentration of a Compound which panelists determined to be less sweet than 1.5% sucrose solution was set as its Threshold Concentration (TC). Next, panelists evaluated the sweetness of 6% sucrose solution containing each Compound at its Threshold Concentration (TC), relative to pure sucrose solutions at varying concentrations. Table 5 summarizes the sensory evaluation data for compounds 101,102, 105, 107 and 122-125, 127, 128.
# [3] = system: Human Panelists; test: sensory evaluation of sweetness of 6% sucrose solution containing Compound at its Threshold Concentration, relative to pure sucrose solutions; type: in vivo; conditions: 6% sucrose solution plus Compound at its Threshold Concentration, compared with pure sucrose solutions
# Description: as §1
SMILES,EC50 [1] [µM],Threshold Concentration (TC) - less sweet than 1.5% sucrose [2] [ppm],Threshold Concentration (TC) - less sweet than 1.5% sucrose ([2]; value in brackets) [µM],Sucrose concentration of equal sweetness to (6% sucrose + Compound at its TC) [3]
"COc1ccc([C@H]2Oc3cc(O)cc(O)c3C(=O)[C@@H]2OC)cc1O (single isomer, unassigned) [Compound 122, (+)-(trans)-5,7-dihydroxy-2-(3-hydroxy-4-methoxyphenyl)-3-methoxychroman-4-one]",0.7,2.5,7.5,"≥8.0%,"
"COc1ccc([C@@H]2Oc3cccc(O)c3C(=O)[C@H]2OC)cc1O (relative stereo) [Compound 127, (−)-(trans)-5-hydroxy-2-(3-hydroxy-4-methoxyphenyl)-3-methoxychroman-4-one]",1,–,–,–
"CCOC1C(=O)c2ccc(O)cc2OC1c1ccc(OC)c(O)c1 (stereo not drawn) [Compound 120, (tans)-7-hydroxy-2-(3-hydroxy-4-methoxyphenyl)-3-ethoxychroman-4-one]",8,–,–,–
"COc1ccc([C@@H]2Oc3cccc(O)c3C(=O)[C@H]2OC)cc1O (racemic) [Compound 105, (trans)-5-hydroxy-2-(3-hydroxy-4-methoxyphenyl)-3-methoxychroman-4-one]",0.1,1.5,4.8,≥7.5%
"COC1C(=O)c2c(O)cccc2OC1c1ccc(O)cc1 (stereo not drawn) [Compound 104, (trans)-5-hydroxy-2-(4-hydroxyphenyl)-3-methoxychroman-4-one]",4,–,–,–
"COc1ccc([C@@H]2Oc3cc(O)ccc3C(=O)[C@H]2OC)cc1O (relative stereo) [Compound 129, (−)-(trans)-7-hydroxy-2-(3-hydroxy-4-methoxyphenyl)-3-methoxychroman-4-one]",> 200,–,–,–
"CCO[C@@H]1C(=O)c2c(O)cc(O)cc2O[C@H]1c1ccc(OC)c(O)c1 (relative stereo) [Compound 117, (trans)-5,7-dihydroxy-2-(3-hydroxy-4-methoxyphenyl)-3-ethoxychroman-4-one]",1,–,–,–
"CO[C@@H]1C(=O)c2ccc(O)cc2O[C@H]1c1ccc(O)cc1 (relative stereo) [Compound 106, (trans)-7-hydroxy-2-(4-hydroxyphenyl)-3-methoxychroman-4-one]",92,–,–,–
"CO[C@@H]1C(=O)c2c(O)cc(O)cc2O[C@H]1c1ccc(O)cc1 (racemic) [Compound 101, (trans)-5,7-dihydroxy-2-(4-hydroxyphenyl)-3-methoxychroman-4-one]",–,11,36,≥7.5%
"COc1ccc([C@@H]2Oc3cc(O)ccc3C(=O)[C@H]2OC)cc1O (racemic) [Compound 107, (trans)-7-hydroxy-2-(3-hydroxy-4-methoxyphenyl)-3-methoxychroman-4-one]",7,11,35,≥7.5%
"CCO[C@@H]1C(=O)c2c(O)cc(O)cc2O[C@H]1c1ccc(O)cc1 (relative stereo) [Compound 118, (trans)-5,7-dihydroxy-2-(4-hydroxyphenyl)-3-ethoxychroman-4-one]",30,–,–,–
"COc1cc(O)c2c(c1)O[C@@H](c1ccc(OC)c(O)c1)[C@H](OC)C2=O (relative stereo) [Compound 113, (trans)-5-hydroxy-2-(3-hydroxy-4-methoxyphenyl)-3,7-dimethoxychroman-4-one]",25,–,–,–
"CO[C@@H]1C(=O)c2c(O)cc(O)cc2O[C@H]1c1cc(O)c(O)c(O)c1 (relative stereo) [Compound 121, (trans)-2-(3,4,5-trihydroxyphenyl)-5,7-dihydroxy-3-methoxychroman-4-one]",180,–,–,–
"COc1ccc([C@H]2Oc3cccc(O)c3C(=O)[C@@H]2OC)cc1O (stereo in doubt) [Compound 126, (+)-(trans)-5-hydroxy-2-(3-hydroxy-4-methoxyphenyl)-3-methoxychroman-4-one]",0.03,–,–,–
"COc1ccc([C@H]2Oc3cc(O)ccc3C(=O)[C@@H]2OC)cc1O (stereo in doubt) [Compound 128, (+)-(trans)-7-hydroxy-2-(3-hydroxy-4-methoxyphenyl)-3-methoxychroman-4-one]",9,5,16,≥8.0%
"COc1ccc([C@@H]2Oc3cc(O)cc(O)c3C(=O)[C@H]2OC)cc1O (racemic) [Compound 102, (trans)-5,7-dihydroxy-2-(3-hydroxy-4-methoxyphenyl)-3-methoxychroman-4-one]",1,4,12,≥7.5%
"CO[C@@H]1C(=O)c2c(O)cc(O)cc2O[C@H]1c1ccc(O)cc1 (relative stereo) [Compound 125, (−)-(trans)-5,7-dihydroxy-2-(4-hydroxyphenyl)-3-methoxychroman-4-one]",> 100,–,–,–
"CO[C@H]1C(=O)c2c(O)cc(O)cc2O[C@@H]1c1ccc(O)cc1 (stereo in doubt) [Compound 124, (+)-(trans)-5,7-dihydroxy-2-(4-hydroxyphenyl)-3-methoxychroman-4-one]",10,5,16,≥8.0%
"CCO[C@@H]1C(=O)c2c(O)cccc2O[C@H]1c1ccc(OC)c(O)c1 (relative stereo) [Compound 119, (trans)-5-hydroxy-2-(3-hydroxy-4-methoxyphenyl)-3-ethoxychroman-4-one]",0.4,–,–,–
